Experimental data from PMC9221108 (2022).

What was measured:
[1] = test system: 5AG4-FAM (DNA, G4) AAAAAGGGTGGGTGGGTGGGTTTTT; assay: FAM fluorescence quenching on hemin addition; details: K+ (varied); 10 mM Tris-HCl pH 8.4; K+-folded parallel G4
[2] = test system: 5AG4 (DNA, G4) AAAAAGGGTGGGTGGGTGGGTTTTT; assay: SGI fluorescence quenching on hemin addition; details: K+ (varied); 10 mM Tris-HCl pH 8.4, 0.2% Tween 20, 0.3x SGI; K+-folded parallel G4
[3] = test system: OTAapt31 (DNA, aptamer) GATCGGGTGTGGGTGGCGTAAAGGGAGCATC; assay: SGI fluorescence quenching; details: 6.25 mM Ca2+; 10 mM Tris-HCl pH 8.4, 0.3x SGI, 20 nM aptamer; tested at 62.5 nM
[4] = test system: OTAapt31 (DNA, aptamer) GATCGGGTGTGGGTGGCGTAAAGGGAGCATC; assay: SGI fluorescence enhancement; details: 6.25 mM Ca2+; 10 mM Tris-HCl pH 8.4, 0.3x SGI, 20 nM aptamer; no OTA; terminal duplex stem
[5] = test system: OTAapt31-FAM (DNA, aptamer) GATCGGGTGTGGGTGGCGTAAAGGGAGCATC; assay: FAM fluorescence quenching on CV addition; details: 6.25 mM Ca2+; 10 mM Tris-HCl pH 8.4; OTA-folded antiparallel G4
[6] = test system: OTAapt31 (DNA, aptamer) GATCGGGTGTGGGTGGCGTAAAGGGAGCATC; assay: SGI fluorescence quenching on CV addition; details: 6.25 mM Ca2+; 10 mM Tris-HCl pH 8.4, 0.3x SGI; OTA-folded antiparallel G4
[7] = test system: OTAapt31 (DNA, aptamer) GATCGGGTGTGGGTGGCGTAAAGGGAGCATC; assay: fluorescence quenching titration; details: 6.25 mM Ca2+; 10 mM Tris-HCl pH 8.4, 0.2% Tween 20, 0.3x SGI, 20 nM aptamer, room temperature; apparent
[8] = test system: OTAapt31-FAM (DNA, aptamer) GATCGGGTGTGGGTGGCGTAAAGGGAGCATC; assay: FAM fluorescence quenching titration; details: 6.25 mM Ca2+; 10 mM Tris-HCl pH 8.4, room temperature; apparent
[9] = test system: OTAapt36 (DNA, aptamer) GATCGGGTGTGGGTGGCGTAAAGGGAGCATCGGACA; assay: fluorescence quenching titration; details: 6.25 mM Ca2+; 10 mM Tris-HCl pH 8.4, 0.2% Tween 20, 0.3x SGI, 20 nM aptamer, room temperature; apparent
[10] = test system: G31C (DNA, aptamer) GGATCGGGTGTGGGTGGCGTAAAGGGAGCATCC; assay: fluorescence quenching titration; details: 6.25 mM Ca2+; 10 mM Tris-HCl pH 8.4, 0.2% Tween 20, 0.3x SGI, 20 nM aptamer, room temperature; apparent

In the case of `C=CC1=C(C)C2=Cc3c(C=C)c(C)c4[n]3[Fe]([Cl])[n]3c(c(C)c(CCC(=O)O)c3=CC3=NC(=C4)C(C)=C3CCC(=O)O)=CC1=N2`, the binding [1] is reported as “yes” and the binding [2] is reported as “yes”.

For `CCCC[C@@H](C)[C@@H](OC(=O)C[C@@H](CC(=O)O)C(=O)O)[C@H](C[C@@H](C)C[C@H](O)CCCC[C@@H](O)C[C@H](O)[C@H](C)N)OC(=O)C[C@@H](CC(=O)O)C(=O)O`, the binding [3] was “no”.

With `CCCN(CCCN(C)C)c1cc(C=C2Sc3ccccc3N2C)c2ccccc2[n+]1-c1ccccc1` the binding [4] was “yes”.

In the case of `CN(C)c1ccc(C(=C2C=CC(=[N+](C)C)C=C2)c2ccc(N(C)C)cc2)cc1`, the binding [5] is reported as “yes” and the binding [6] is reported as “yes”.

`C[C@@H]1Cc2c(Cl)cc(C(=O)N[C@@H](Cc3ccccc3)C(=O)O)c(O)c2C(=O)O1` showed an IC50 [7] of 20.6 nM, an IC50 [8] of 19.8 nM and an IC50 [9] of 55.7 nM. For the same compound, the IC50 [10] was 17.8 nM.

With `C[C@@H]1Cc2ccc(C(=O)N[C@@H](Cc3ccccc3)C(=O)O)c(O)c2C(=O)O1` the binding [3] was “no”.

With `C[C@H]1CCCC(=O)CCC/C=C/c2cc(O)cc(O)c2C(=O)O1` the binding [3] was “no”.

With `O=C1C=C2C(=CCOC2O)O1` (stereo not shown) the binding [3] was “no”.
